Assay results published in the METLIN SMRT retention time set (Domingo-Almenara et al. 2019).

Test: gradient 5% acetonitrile 3 min, to 50% in 2 min, to 85% in 15 min, held 3 min, 100 µL/min
Conditions: column: Zorbax Extend-C18 2.1 x 50 mm; eluents: water / acetonitrile, 0.1% formic acid
Method in brief: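 Retention times of pure standards were taken from adduct peaks that were selected by computer and manually inspected. Over 3 months, mixtures of ~100 molecules were run by HPLC–quadrupole time-of-flight mass spectrometry in positive and negative ionization mode. The Zorbax Extend-C18 column (2.1 × 50 mm, 1.8 μm) ran at 100 μL/min in water and acetonitrile, each containing 0.1% formic acid, with 40 μL dead volume and 900 μL dwell volume.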

| Compound | RP-LC retention time [s] |
| --- | --- |
| Cc1ccc(CNS(=O)(=O)c2cc(-c3nc(C(C)(C)C)cs3)cs2)cc1 | 1320 |
| CCCCOC(=O)c1ccc(Nc2ncnc(N)c2[N+](=O)[O-])cc1 | 930 |
| CCc1nnc(-c2ccc(NC(=O)c3cc4ccccc4o3)cc2)o1 | 826 |
| O=C(C1=CCN(Cc2ccccc2)CC1)N1CCN(c2cccc(Cl)c2)CC1 | 707 |
| Cc1cccc(C)c1NC(=O)Cn1ncc2c(c1=O)N(C1CC1)C(=O)CS2 | 714 |
| Cc1noc(C2CCCCN2C(=O)c2ccoc2)n1 (centres undefined) | 670 |
| Cc1ccc(-c2noc(C3CC(=O)N(c4ccc5c(c4)OCO5)C3)n2)cc1 (centres undefined) | 955 |
| Cc1ccccc1CNS(=O)(=O)c1cc(-c2[nH]ncc2C(=O)N(C)C)oc1C | 701 |
| Cc1ccc(CNC(=O)c2cc3sccc3n2Cc2ccc(F)cc2)cc1 | 888 |
| CN1C(=O)[C@H]2CN(Cc3ccc(Cl)cc3)C[C@H]2C1=O | 598 |
| Cc1cc2c(cc1S(=O)(=O)N1CCCC1C(=O)NC1CCCCCC1)OC(C)C(=O)N2 (centres undefined) | 834 |
| O=C(NC1CCCC1)C1CCCCN1S(=O)(=O)c1ccc(F)cc1 (centres undefined) | 941 |
| NS(=O)(=O)c1cccnc1Nc1ccc2c(c1)OCCO2 | 735 |
| CCOC(=O)c1ncoc1-c1ccccc1C(=O)NC(C)C | 676 |
| CCCn1cc(C(=O)Nc2ccc(C)cc2)c(S(=O)(=O)N2CCSCC2)n1 | 1090 |
| N#Cc1ccc(C(=O)Nc2nnc(CSc3ccccc3)o2)cc1 | 749 |
| O=C(CN1c2ccc(F)cc2-c2ccccc2S1(=O)=O)Nc1ccccc1 | 936 |
| CN(C)c1cccc(-c2nn3c(CSc4ccccc4)nnc3s2)c1 | 1070 |
| Cc1nc(-c2cn(C(C)C)c3ncccc23)sc1C(=O)NCC(C)C | 975 |
| CCOC(=O)C1CCN([C@H]2CS(=O)(=O)C[C@@H]2S(=O)(=O)c2ccccc2)CC1 | 826 |
| CCn1nc(CNC(=O)c2ccc3c(c2)OCO3)c2ccccc21 | 804 |
| O=C(c1ccc(Br)cc1)N1CCc2nc(-c3ccccc3)ncc2C1 | 1000 |
| O=C(NCc1ccccc1F)C1CCCN(c2nccnc2Sc2ccccc2)C1 (centres undefined) | 1050 |
| CN(CC1CCOC1)C(=O)Nc1ccc(C(F)(F)F)cc1 (centres undefined) | 783 |
| Cc1ccc(CNC(=O)C2(C)CCN(C(=O)Nc3ccccc3C(F)(F)F)CC2)cc1 | 927 |
| O=C(c1ccsc1)N1CCOc2ccc(N3CCOCC3)cc2C1 | 701 |
| Cc1ccc(-c2nnc(-c3ccccc3)o2)cc1S(=O)(=O)N1CCOCC1 | 922 |
| O=C(NCc1ccc(F)cc1)C1=C2CCCN2c2ccc(F)cc2S1(=O)=O | 864 |

| Compound | RP-LC retention time [s] |
| --- | --- |
| O=C1CC(c2nc(-c3cccc(Cl)c3)no2)CN1c1ccc2c(c1)OCCO2 (centres undefined) | 1000 |
| Fc1ccc(-c2nc(-c3ccc(-n4cccn4)nc3)no2)c(F)c1 | 1170 |
| CCC(=O)Nc1c(C)noc1/C=C/c1ccc(S(=O)(=O)N2CCC(C)CC2)s1 | 919 |
| O=C(NCCCc1ccccc1)c1nnc(-c2ccc(S(=O)(=O)N3CCCC3)cc2)o1 | 971 |
| Cc1nnc2ccc(S(=O)(=O)Nc3ccc(F)c(F)c3)cn12 | 692 |
| O=C(c1nc(-c2ccnc(N3CCCCC3)c2)no1)N1CCCC1 | 673 |
| O=S1(=O)CCC(Nc2ncnc3c2cnn3-c2ccc(Cl)c(Cl)c2)C1 (centres undefined) | 903 |
| CN(C)c1cccc(-c2nc(-c3cn(Cc4cccc(F)c4)nn3)no2)c1 | 677 |
| CC(C)Cn1cc(CCNC(=O)Nc2cccc(Br)c2)c2cccnc21 | 904 |
| O=C1CN(c2ncnc3[nH]ncc23)CC(=O)N1CCc1ccccc1 | 662 |
| O=C(CCc1c(-c2ccc(F)cc2)nc2ccccn12)Nc1cccc(F)c1 | 676 |
| Cn1ncc2c(N3CCN(c4ccc(F)cc4)CC3)ncnc21 | 802 |
| CCN1CCCCc2cc(C(=O)NCC3CCN(CC(C)C)C3)sc21 (centres undefined) | 718 |
| Cc1noc(C)c1CN1CCC(NC(=O)c2ccc3c(c2)OCO3)CC1 | 590 |
| Cc1cc(C)cc(S(=O)(=O)N2CCc3c(c(-c4nnc(-c5ccc(F)cc5)o4)nn3C)C2)c1 | 812 |
| Cc1nc2cc(-c3noc(C4(c5ccccc5)CC4)n3)ccc2o1 | 1110 |
| CCCCn1cc(S(=O)(=O)NCc2cccc(Cl)c2)c2cccnc21 | 1020 |
| O=C(NCc1ccc(F)cc1)c1cc(-c2ccc(F)cc2)ns1 | 1030 |
| CC(C)Cn1nc2n(c1=O)CCN(S(=O)(=O)Cc1ccccc1)CC2 | 777 |
| O=C(Cc1c[nH]c2ccccc12)Nc1cc(-c2ccccn2)no1 | 754 |
| CCCCNC(=O)C1CCCN(c2nnc3c(Cl)cccn23)C1 (centres undefined) | 594 |
| CCCc1noc(-c2cccnc2N2CCCN(Cc3ccc(Cl)cc3)CC2)n1 | 754 |
| Cc1ccc(CNc2nnc(N3CCOCC3)c3ccccc23)cc1 | 678 |
| O=C(Nc1c(-c2ccc(F)cc2)nc2ccccn12)c1cccc([N+](=O)[O-])c1 | 684 |
| COc1ccc(-c2nc(-c3ccc4c(c3)ncn4CCN3CCCCC3)no2)cc1 | 658 |
| CC(=O)N1c2ccc(S(=O)(=O)N3CCCCC3)cc2CC1C(=O)N(C)Cc1ccccc1 (centres undefined) | 864 |
| Clc1ccc(Nc2c(-c3ccc(Cl)cc3)nc3ccc(Cl)cn23)cc1 | 1090 |

Next, values leading:

| RP-LC retention time [s] | Compound |
| --- | --- |
| 642 | Cc1ncoc1C(=O)N1CCC(c2noc(-c3ccncc3)n2)C1 (centres undefined) |
| 787 | COCCOC(=O)C1=C(C)NC2=C(C(=O)CC(C)(C)C2)C1c1cccc(OC)c1OC (centres undefined) |
| 705 | Cc1nc(-c2ccccc2)sc1C(=O)NCCNC(=O)c1ccc(NC(=O)C2CC2)cc1 |
| 1250 | COC(=O)c1cc2c(=O)n(-c3nc(-c4ccccc4)cs3)ccc2nc1C |
| 913 | COc1ccc(Cl)cc1S(=O)(=O)N1CCC(C(=O)Nc2ccccc2)CC1 |
| 1230 | Cc1ccc(Sc2nccnc2N2CCCC(C(=O)Nc3ccc(F)c(C)c3)C2)cc1 (centres undefined) |
| 928 | COc1cccc(NC(=O)c2cc(C)n3nc(C)cc3n2)c1 |
| 587 | Cc1cc2c(cc1S(=O)(=O)N(C)CC(=O)N1CCN(c3ccccn3)CC1)OC(C)C(=O)N2 (centres undefined) |
| 792 | CCOC(=O)c1[nH]c(C)c(CCC(=O)N2CCC(C(=O)NC(C)c3ccccc3)CC2)c1C (centres undefined) |
| 813 | O=C(Cn1nc(C2CC2)cc1C(=O)N1CCCC1)Nc1ccc(F)cc1Cl |
| 704 | CCOC(=O)c1cccc(Nc2c(C(=O)N3CCCCC3CC)cnc3nc(C)ccc23)c1 (centres undefined) |
| 861 | O=C(NC1(c2nc(-c3ccncc3)no2)CCCCC1)C1CCCC1 |
| 611 | CCc1nnc2nc(N3CCN(C(=O)c4ccc5c(c4)OCO5)CC3)cc(C)n12 |
| 557 | Cc1cc(N2CCN(C(=O)c3cccc(N(C)C)c3)CC2)nc2nnc(C)n12 |
| 1030 | O=C(NC1(c2nc(-c3cccnc3)no2)CCCCC1)c1ccc(F)c(Cl)c1 |
| 768 | COc1ccc(C(=O)N2CCC3(CC2)NC(=O)c2cc(Cl)ccc2N3C)cc1 |
| 752 | O=C(NCCC1=CCCCC1)C1CCCN(c2ccnc(-c3ccc(F)cc3)n2)C1 (centres undefined) |

| RP-LC retention time [s] | Compound |
| --- | --- |
| 587 | CCc1onc(C)c1C1CCCN1Cc1cc(OC)c(O)c(OC)c1 (centres undefined) |
| 960 | Cc1nc(-c2ccc3c(c2)CCN3C(=O)COc2ccc(F)cc2)cs1 |
| 805 | COc1ccc(-c2csc(CN3CCN(C(=O)c4c(F)cccc4Cl)CC3)n2)cc1 |
| 603 | COc1ccc(NC(=O)Cn2c(N3CCCC3)nc(C)cc2=O)cc1 |
| 611 | COc1cc(OC)c(NC(=O)C2CCN(C(=O)c3cc(-c4ccncc4)n[nH]3)CC2)cc1Cl |
| 768 | Cc1cccc(NC(=O)C2CCN(S(=O)(=O)c3cc(-c4noc(C)n4)cs3)CC2)n1 |
| 1040 | O=C(Nc1ccc(Cl)cc1)N1CCCC1c1nc(-c2ccc(F)cc2F)no1 (centres undefined) |
| 988 | COc1cccc(N2CCN(C(=O)c3cc4sccc4n3C)CC2)c1 |
| 607 | Cc1nc(-c2cccs2)c(CC(=O)N2CCN(c3ccccn3)CC2)s1 |
| 807 | CCc1cccc(NS(=O)(=O)c2cc(-c3c(CC)noc3NC(C)=O)ccc2OC)c1 |
| 1040 | COC(=O)C1CCN(S(=O)(=O)c2ccc(Cl)c(-c3nnc(-c4ccccc4)o3)c2)CC1 |
| 648 | CC(=O)N1CCC(C(=O)Nc2cc(-c3nnc(C)o3)sc2C)CC1 |
| 604 | Cn1c(CN2CCN(C(=O)c3ccc(C#N)cc3)CC2)nc2cc(C(=O)N3CCCC3)ccc21 |
| 912 | CC(C)CCNC(=O)c1ccc2c(=O)n(-c3ccc(F)cc3)c(N3CCCC3)nc2c1 |
| 1060 | CCn1cc(-c2ccc(F)cc2)cc1C(=O)N1CCCCC1 |
| 1100 | CCc1nc(-c2csc(S(=O)(=O)N3CCCC(C(=O)Nc4ccc(Cl)cc4)C3)c2)no1 (centres undefined) |
| 728 | Cc1ccc(NC(=O)c2[nH]c3cc(C)sc3c2CN2CCOCC2)c(F)c1 |
